Data: paper PMC8226474, “Design, Syntheses, and Bioevaluations of Some Novel N^2-Acryloylbenzohydrazides as Chemostimulants and Cytotoxic Agents” (Medicines, 2021)
Like-named read-outs stand apart in the source and are kept apart here.

Columns and labels:
CRL 1790 cells = assay: Cytotoxicity assay, non-malignant CRL 1790 colon cells; assay type: cell-based
Description: (§1) Evaluation of the cytotoxic properties of the compounds presented in Table 1, Table 2, Table 3 and Table 4 was undertaken using the procedure outlined in [7]. In brief, the HCT 116 cells were obtained from the ATCC and cultured in McCoy’s 5A medium. The CRL 1790 cells were obtained from the ATCC and cultured in Minimum Essential Medium. The MCF-7 and MDA-MBA-231 cells were obtained from the Saskatchewan Cancer Agency and cultured in DMEM. In each assay the culture medium was supplemented with 10% fetal bovine serum and 1% penicillin–streptomycin antibiotics. The time of the bioassays was 48 h, unless indicated otherwise. All determinations were carried out in triplicate on three different occasions.

HCT 116 cells [1] = assay: Cytotoxicity assay, HCT 116 colon cancer cells; assay type: cell-based, human; settings: for inhibition at 10 µM / inhibition at 100 µM / IC50: Homo sapiens, HCT-116, 48 h; for inhibition at 10 µM / inhibition at 100 µM: read-out: percentage inhibition of HCT 116 cells; for SI (selectivity index): IC50 CRL 1790 / IC50 HCT 116
Description: as §1

MDA-MB-231 cells = assay: Cytotoxicity assay, MDA-MB-231 breast cancer cells; assay type: cell-based, human; settings: for inhibition at 10 µM / inhibition at 100 µM / IC50: Homo sapiens, MDA-MB-231, 48 h; for inhibition at 10 µM / inhibition at 100 µM: read-out: percentage inhibition of MDA-MB-231 cells; for IC50 / SI (selectivity index): Table 2; for IC50: read-out: Neoplastic Cells IC50, MDA-MB-231; for SI (selectivity index): IC50 CRL 1790 / IC50 MDA-MB-231
Description: as §1

MCF-7 cells = assay: Cytotoxicity assay, MCF-7 breast cancer cells; assay type: cell-based, human; settings: for inhibition at 10 µM / inhibition at 100 µM / IC50: Homo sapiens, MCF7, 48 h; for inhibition at 10 µM / inhibition at 100 µM: read-out: percentage inhibition of MCF-7 cells; for IC50 / SI (selectivity index): Table 2; for IC50: read-out: Neoplastic Cells IC50, MCF-7; for SI (selectivity index): IC50 CRL 1790 / IC50 MCF-7
Description: as §1

HCT 116 cells [2] = assay: Chemosensitization of HCT 116 cells: 1m for 24 h, then 2a or 5-FU for a further 24 h; assay type: cell-based, human; settings: for Live Cells %: entry 19: 5-FU 3 µM alone
Description: as §1
The next phase of the investigation was to determine whether a representative compound in series 1 chemosensitizes HCT 116 cells to a 3,5-bis(benzylidene)-4-piperidone 2a. […] The colon cancer cells were incubated for 24 h with 1m, and then 2a was added and the incubation was continued for a further 24 h. Different concentrations of both 1m and 2a were employed, and the results are presented as entries 1–12 in Table 3. In addition, the effects of each of 1m, 2a, and 5-FU on HCT 116 cells (which are necessary for the evaluation of whether chemosensitivity occurs) were recorded, and are presented as entries 13–20 in Table 3.
The concentration of 1m in combination 4 is 5 µM, which after 48 h causes a percentage reduction of live cells to 86% (DMSO figure after 48 h, line 20) minus 75% (48 h, line 13), or 11%.
The concentration of 2a in combination 4 is 0.2 µM. This combination leads to a reduction of the percentage of live cells to 91% (DMSO figure after 24 h, line 20) minus 69%, or 22%.
The percentage reduction in live cells caused by a combination of 1m (5 µM) and 2a (0.2 µM), in the absence of chemosensitization, is 11% plus 22%, or 33%.
However, the percentage reduction in cells as indicated on line 4 is 86% (DMSO figure after 48 h) minus 12% (line 4, 48 h figure), or 74%.

[3] = Homo sapiens, 48 h, Table 2, read-out: Non-Malignant CRL 1790 Cells IC50
[4] = Table 2, read-out: Neoplastic Cells IC50, HCT 116
[5] = Table 4, read-out: IC50 HCT 116
[6] = Homo sapiens, 48 h, Table 4, read-out: IC50 CRL 1790

SMILES | melting point | inhibition at 10 µM (HCT 116 cells [1]) | inhibition at 100 µM (HCT 116 cells [1]) | inhibition at 10 µM (MDA-MB-231 cells) | inhibition at 100 µM (MDA-MB-231 cells) | inhibition at 10 µM (MCF-7 cells) | inhibition at 100 µM (MCF-7 cells) | IC50 (MCF-7 cells) | SI (selectivity index) (MCF-7 cells) | IC50 (HCT 116 cells [1]; [5]) | SI (selectivity index) (HCT 116 cells [1]; Table 4) | IC50 (CRL 1790 cells; [6]) | also measured
C=CC(=O)NNC(=O)c1ccccc1C [1j, N^2-Acryloyl-2-methylbenzohydrazide] | 151 to 153 °C | 10.4 ± 1.61% | 62.1 ± 2.48% | -2.64 ± 2.37% | 46.8 ± 3.63% | 53.3 ± 3.07% | > 100% | 9.14 ± 1.31 µM | >10.9 |  |  |  | IC50 (CRL 1790 cells; [3]): > 100 µM
N[C@@H](Cc1ccc(N(CCCl)CCCl)cc1)C(=O)O [Melphalan, reference compound] |  | 33.9 ± 1.81% | 98.7 ± 1.12% | 28.6 ± 2.48% | > 100% | > 100% | > 100% | 12 ± 1.43 µM | >8.32 | 33.2 ± 1.7 µM | >3.02 |  | IC50 (CRL 1790 cells; Homo sapiens; Table 2; 48 h; read-out: Non-Malignant CRL 1790 Cells IC50): > 100 µM; IC50 (CRL 1790 cells; Homo sapiens; Table 4; 48 h; read-out: IC50 CRL 1790): > 100 µM; IC50 (HCT 116 cells [1]; [4]): 30.7 ± 2.73 µM; SI (selectivity index) (HCT 116 cells [1]; Table 2): >3.25; IC50 (MDA-MB-231 cells): 52.9 ± 2.32 µM; SI (selectivity index) (MDA-MB-231 cells): >1.90
C=CC(=O)NNC(=O)c1ccc(Cl)c(Cl)c1 [1g, N^2-Acryloyl-3,4-dichlorobenzohydrazide] | 172 to 175 °C | 6.72 ± 1.97% | > 100% | -19.4 ± 3.01% | 139.8 ± 1.03% | -50.5 ± 3.27% | 97.4 ± 2.6% |  |  |  |  |  | 
O=c1[nH]cc(F)c(=O)[nH]1 [5-FU, 5-fluorouracil, reference compound] |  | 84.7 ± 2.53% | 94.1 ± 0.96% | 17.4 ± 2.97% | > 100% | 91.2 ± 3.03% | 99.3 ± 2.87% | 2 ± 0.25 µM | 5.42 | 4.11 ± 0.22 µM | 2.64 | 10.8 ± 1.64 µM | Reduction in Live Cells % 2a (24 h) (HCT 116 cells [2]; 5-FU 3 µM alone, 24 h, DMSO figure minus compound figure): 13%; Live Cells % (HCT 116 cells [2]; 24 h): 78 ± 2.44%; Live Cells % (HCT 116 cells [2]; 48 h): 55 ± 1.37%; IC50 (CRL 1790 cells; [3]): 10.8 ± 1.64 µM; IC50 (HCT 116 cells [1]; [4]): 3.77 ± 0.48 µM; SI (selectivity index) (HCT 116 cells [1]; Table 2): 2.92; IC50 (MDA-MB-231 cells): 15.9 ± 1.65 µM; SI (selectivity index) (MDA-MB-231 cells): 0.68
C=CC(=O)NNC(=O)c1ccc(Br)cc1 [1c, N^2-Acryloyl-4-bromobenzohydrazide] | 256 to 259 °C | -3.28 ± 1.5% | 87.9 ± 0.91% | -16.5 ± 1.45% | 88.7 ± 1.26% | -4.68 ± 3.17% | 46.6 ± 3.35% |  |  |  |  |  | 

Continued, in another order:

melting point | SMILES | inhibition at 10 µM (HCT 116 cells [1]) | inhibition at 100 µM (HCT 116 cells [1]) | inhibition at 10 µM (MDA-MB-231 cells) | inhibition at 100 µM (MDA-MB-231 cells) | inhibition at 10 µM (MCF-7 cells) | inhibition at 100 µM (MCF-7 cells) | IC50 (MCF-7 cells) | SI (selectivity index) (MCF-7 cells) | IC50 (HCT 116 cells [1]; [5]) | SI (selectivity index) (HCT 116 cells [1]; Table 4) | IC50 (CRL 1790 cells; [6]) | also measured
151 to 154 °C | COc1ccc(C(=O)NNC(=O)CCN2CC(=Cc3ccccc3)C(=O)C(=Cc3ccccc3)C2)cc1OC [7b, 3,5-Bis(benzylidene)-1-[3-(3,4-dimethoxylphenylcarbonylaminoamino)-3-oxo-1-propyl]-4-piperidone] |  |  |  |  |  |  |  |  | 3.15 ± 0.33 µM | 3.06 | 9.63 ± 1.62 µM | times more potent than 1m (HCT 116 cells [1]; ratio of IC50 values towards HCT 116 cells): 4.86 times
198 to 200 °C | COc1ccc(C(=O)NNC(=O)CCN2CC(=Cc3ccc(F)cc3)C(=O)C(=Cc3ccc(F)cc3)C2)cc1OC [7d, 3,5-Bis(4-fluorobenzylidene)-1-[3-(3,4-dimethoxyphenylcarbonylaminoamino)-3-oxo-1-propyl]-4-piperidone] |  |  |  |  |  |  |  |  | 3.82 ± 0.11 µM | 2.99 | 11.4 ± 2.22 µM | 
200 to 202 °C | COc1ccc(C(=O)NNC(=O)CCN2CC(=Cc3ccc(Cl)cc3)C(=O)C(=Cc3ccc(Cl)cc3)C2)cc1OC [7c, 3,5-Bis(4-chlorobenzylidene)-1-[3-(3,4-dimethoxyphenylcarbonylaminoamino)-3-oxo-1-propyl]-4-piperidone] |  |  |  |  |  |  |  |  | 3.4 ± 0.01 µM | 3.60 | 12.2 ± 1.22 µM | 
193 to 195 °C | O=C(CCNNC(=O)c1ccccc1)NNC(=O)c1ccccc1 [6c, N^2-[3-(Benzoylaminoamino)-1-oxopropyl]-N^1-benzoylhydrazine] | 18.6 ± 3.98% | 96.9 ± 1.86% | -16 ± 2.91% | 95.6 ± 4.22% | 16.1 ± 3.55% | 97.9 ± 2.68% |  |  |  |  |  | 
